From ChEMBL document CHEMBL4038289, “Y-shaped bis-arylethenesulfonic acid esters: Potential potent and membrane permeable protein tyrosine phosphatase 1B inhibitors” (Bioorg Med Chem Lett, 2017)

What was measured:
[1] = molecular target: T1, Tyrosine-protein phosphatase non-receptor type 1 (Homo sapiens, UniProt P18031); test: Inhibition of recombinant PTP1B (unknown origin) expressed in Escherichia coli using pNPP as substrate measured after 30 mins
T1 sequence (P18031 whole entry): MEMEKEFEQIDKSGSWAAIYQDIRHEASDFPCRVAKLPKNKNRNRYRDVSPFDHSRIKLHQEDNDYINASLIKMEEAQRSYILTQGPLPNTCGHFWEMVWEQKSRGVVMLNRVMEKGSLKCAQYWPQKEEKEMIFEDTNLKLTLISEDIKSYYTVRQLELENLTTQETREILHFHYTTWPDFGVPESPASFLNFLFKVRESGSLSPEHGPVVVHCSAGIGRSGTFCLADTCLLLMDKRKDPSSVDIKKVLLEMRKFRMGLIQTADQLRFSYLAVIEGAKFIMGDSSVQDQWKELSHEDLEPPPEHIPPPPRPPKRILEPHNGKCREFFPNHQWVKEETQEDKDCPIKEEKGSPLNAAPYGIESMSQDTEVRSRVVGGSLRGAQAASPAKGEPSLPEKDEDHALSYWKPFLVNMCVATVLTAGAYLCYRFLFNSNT

[2] = species: Homo sapiens; test: Selectivity ratio of IC50 for recombinant TCPTP (unknown origin) to IC50 for recombinant PTP1B (unknown origin) expressed in Escherichia coli
[3] = species: Homo sapiens; test: Selectivity ratio of IC50 for recombinant SHP2 (unknown origin) to IC50 for recombinant PTP1B (unknown origin) expressed in Escherichia coli
[4] = Apparent permeability of compound at 20 uM at pH 7.4 after 16 hrs by PAMPA; format: physicochemical
[5] = molecular target: T2, Tyrosine-protein phosphatase non-receptor type 2 (Homo sapiens, UniProt P17706); test: Inhibition of recombinant TCPTP (unknown origin) using pNPP as substrate measured after 30 mins
T2 sequence (P17706 whole entry): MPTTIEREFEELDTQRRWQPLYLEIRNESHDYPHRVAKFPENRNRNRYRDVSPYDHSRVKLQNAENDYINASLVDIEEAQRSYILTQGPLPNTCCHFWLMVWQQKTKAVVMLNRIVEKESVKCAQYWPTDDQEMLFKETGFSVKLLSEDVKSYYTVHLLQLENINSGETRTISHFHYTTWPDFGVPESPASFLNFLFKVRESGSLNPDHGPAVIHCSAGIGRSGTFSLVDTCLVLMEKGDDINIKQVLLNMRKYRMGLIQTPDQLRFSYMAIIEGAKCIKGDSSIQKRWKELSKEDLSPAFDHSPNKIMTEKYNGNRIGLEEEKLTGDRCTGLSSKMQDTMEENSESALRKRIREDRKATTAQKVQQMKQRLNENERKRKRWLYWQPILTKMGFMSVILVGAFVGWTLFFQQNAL

[6] = molecular target: T3, Tyrosine-protein phosphatase non-receptor type 11 (Homo sapiens, UniProt Q06124); test: Inhibition of recombinant SHP2 (unknown origin) using pNPP as substrate measured after 30 mins
T3 sequence (Q06124 whole entry): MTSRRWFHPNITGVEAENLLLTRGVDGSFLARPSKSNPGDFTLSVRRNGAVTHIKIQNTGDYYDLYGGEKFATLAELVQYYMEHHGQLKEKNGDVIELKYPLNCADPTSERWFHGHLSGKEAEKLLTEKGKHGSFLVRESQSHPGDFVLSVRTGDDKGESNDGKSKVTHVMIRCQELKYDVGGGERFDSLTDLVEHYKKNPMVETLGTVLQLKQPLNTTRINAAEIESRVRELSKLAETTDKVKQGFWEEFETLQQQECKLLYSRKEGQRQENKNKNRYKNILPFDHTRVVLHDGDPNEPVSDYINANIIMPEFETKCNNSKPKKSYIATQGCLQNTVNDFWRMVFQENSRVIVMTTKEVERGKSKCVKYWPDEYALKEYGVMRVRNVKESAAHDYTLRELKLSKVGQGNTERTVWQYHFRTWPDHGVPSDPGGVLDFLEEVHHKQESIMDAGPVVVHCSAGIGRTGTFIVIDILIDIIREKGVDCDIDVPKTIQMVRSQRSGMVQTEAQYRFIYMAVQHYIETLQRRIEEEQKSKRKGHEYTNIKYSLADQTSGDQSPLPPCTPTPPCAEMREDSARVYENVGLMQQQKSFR

| IC50 [1] [µM] | SMILES | further results |
| --- | --- | --- |
| 1.3 | CCOS(=O)(=O)/C=C/c1ccc(OCc2ccc(COc3ccc(/C=C/S(=O)(=O)OCC)cc3)c(C(=O)Nc3ccc(C(C)C)cc3)c2)cc1 |  |
| 2.6 | CCOS(=O)(=O)/C=C/c1ccc(OCc2ccc(COc3ccc(/C=C/S(=O)(=O)OCC)cc3)c(C(=O)Nc3ccc(OC)cc3)c2)cc1 |  |
| 1.3 | CCOS(=O)(=O)/C=C/c1ccc(OCc2ccc(COc3ccc(/C=C/S(=O)(=O)OCC)cc3)c(C(=O)Nc3ccc(Oc4ccc(F)cc4)cc3)c2)cc1 |  |
| 0.19 | CCOS(=O)(=O)/C=C/c1ccc(OCc2ccc(COc3ccc(/C=C/S(=O)(=O)OCC)cc3)c(C(=O)Nc3ccc(Oc4ccc(CC)cc4)cc3)c2)cc1 | Ratio IC50 [2]: 5 to 9; Ratio IC50 [3]: 5 to 6; Papp at 16 h, 20 µM [4]: 8.5 ×10⁻⁶ cm/s; IC50 [5]: 1.32 µM; IC50 [6]: 1.1 µM |
| 0.85 | CCOS(=O)(=O)/C=C/c1ccc(OCc2ccc(COc3ccc(/C=C/S(=O)(=O)OCC)cc3)c(C(=O)Nc3ccc(Oc4ccccc4F)cc3)c2)cc1 |  |
| 0.4 | CCOS(=O)(=O)/C=C/c1ccc(OCc2ccc(COc3ccc(/C=C/S(=O)(=O)OCC)cc3)c(C(=O)Nc3ccc(Oc4ccc(Cl)cc4)cc3)c2)cc1 | Ratio IC50 [2]: 5 to 9; Papp at 16 h, 20 µM [4]: 9.1 ×10⁻⁶ cm/s; IC50 [5]: 2.97 µM; IC50 [6]: 0.94 µM |
| 1.1 | CCOS(=O)(=O)/C=C/c1ccc(OCc2ccc(COc3ccc(/C=C/S(=O)(=O)OCC)cc3)c(C(=O)Nc3ccc(F)cc3)c2)cc1 |  |
| 0.86 | CCOS(=O)(=O)/C=C/c1ccc(OCc2ccc(COc3ccc(/C=C/S(=O)(=O)OCC)cc3)c(C(=O)Nc3ccc(Oc4ccccc4)cc3)c2)cc1 |  |
| 1.4 | CCOS(=O)(=O)/C=C/c1ccc(OCc2ccc(COc3ccc(/C=C/S(=O)(=O)OCC)cc3)c(C(=O)Nc3ccccc3)c2)cc1 |  |

The next lines start with the compound.

| SMILES | IC50 [1] [µM] | further results |
| --- | --- | --- |
| CCOS(=O)(=O)/C=C/c1ccc(Oc2ccc(/C=C/S(=O)(=O)OCC)cc2)cc1 | 11.8 |  |
| CCOS(=O)(=O)/C=C/c1ccc(OCCCCOc2ccc(/C=C/S(=O)(=O)OCC)cc2)cc1 | > 100 |  |
| CCOS(=O)(=O)/C=C/c1ccc(OCc2ccc(COc3ccc(/C=C/S(=O)(=O)OCC)cc3)c(C(=O)Nc3ccc(Oc4cccc(C(F)(F)F)c4)cc3)c2)cc1 | 0.35 | Ratio IC50 [2]: 5 to 9; Ratio IC50 [3]: 5 to 6; Papp at 16 h, 20 µM [4]: 6.9 ×10⁻⁶ cm/s; IC50 [5]: 1.62 µM; IC50 [6]: 1.7 µM |
| CCOS(=O)(=O)/C=C/c1ccc(OCCCOc2ccc(/C=C/S(=O)(=O)OCC)cc2)cc1 | 37.3 |  |
| CC(C)NCC(O)COc1cccc2ccccc12 (stereo not given) [PROPRANOLOL] |  | Papp at 16 h, 20 µM [4]: 18.7 ×10⁻⁶ cm/s |
| CCOS(=O)(=O)/C=C/c1ccc(OCc2cccc(COc3ccc(/C=C/S(=O)(=O)OCC)cc3)c2)cc1 | 18.4 |  |
| CCOS(=O)(=O)/C=C/c1ccc(OCc2ccc(COc3ccc(/C=C/S(=O)(=O)OCC)cc3)c(C(=O)Nc3ccc(Oc4ccc(C(C)(C)C)cc4)cc3)c2)cc1 | 0.91 |  |
| CCOS(=O)(=O)/C=C/c1ccc(OCc2ccc(COc3ccc(/C=C/S(=O)(=O)OCC)cc3)cc2)cc1 | 1.2 | IC50 [5]: 3.39 µM; IC50 [6]: 4.7 µM |
| CCOS(=O)(=O)/C=C/c1ccc(OC2CCC(Oc3ccc(/C=C/S(=O)(=O)OCC)cc3)CC2)cc1 (stereo not given) | 29.2 |  |
| CCOS(=O)(=O)/C=C/c1ccc(OCc2ccc(COc3ccc(/C=C/S(=O)(=O)OCC)cc3)c(C(=O)Nc3ccc(Oc4ccc(C(C)C)cc4)cc3)c2)cc1 | 0.75 |  |
| CCOS(=O)(=O)/C=C/c1ccc(OCc2ccc(COc3ccc(/C=C/S(=O)(=O)OCC)cc3)c(C(=O)Nc3ccc(Oc4ccc5ccccc5c4)cc3)c2)cc1 | 0.79 |  |
| CCOS(=O)(=O)/C=C/c1ccc(OCc2ccc(COc3ccc(/C=C/S(=O)(=O)OCC)cc3)c(C(=O)Nc3ccc(Oc4ccc(Br)cc4Cl)cc3)c2)cc1 | 0.16 | Ratio IC50 [2]: 5 to 9; Ratio IC50 [3]: 5 to 6; Papp at 16 h, 20 µM [4]: 12.6 ×10⁻⁶ cm/s; IC50 [5]: 1.43 µM; IC50 [6]: 1.05 µM |
| CCOS(=O)(=O)/C=C/c1ccc(OCc2ccc(COc3ccc(/C=C/S(=O)(=O)OCC)cc3)c(C(=O)Nc3ccc(Oc4ccc(C(F)(F)F)cc4)cc3)c2)cc1 | 0.82 |  |
| CCOS(=O)(=O)/C=C/c1ccc(OCc2ccc(COc3ccc(/C=C/S(=O)(=O)OCC)cc3)c(C(=O)Nc3ccc(Oc4ccccc4C(F)(F)F)cc3)c2)cc1 | 0.87 |  |
| CCOS(=O)(=O)/C=C/c1ccc(OCc2ccc(COc3ccc(/C=C/S(=O)(=O)OCC)cc3)c(C(=O)Nc3ccc(Oc4ccc(-c5ccccc5)cc4)cc3)c2)cc1 | 0.14 | Ratio IC50 [2]: 5 to 9; Ratio IC50 [3]: 5 to 6; Papp at 16 h, 20 µM [4]: 9.7 ×10⁻⁶ cm/s; IC50 [5]: 1.29 µM; IC50 [6]: 0.92 µM |
| CCOS(=O)(=O)/C=C/c1ccc(OCc2ccc(COc3ccc(/C=C/S(=O)(=O)OCC)cc3)c(C(=O)OC)c2)cc1 | 3.4 |  |
| CCOS(=O)(=O)/C=C/c1ccc(OCc2ccc(COc3ccc(/C=C/S(=O)(=O)OCC)cc3)c(C(=O)Nc3ccc(Oc4cccc(-c5ccccc5)c4)cc3)c2)cc1 | 1.1 |  |
| CCOS(=O)(=O)/C=C/c1ccc(OCOc2ccc(/C=C/S(=O)(=O)OCC)cc2)cc1 | 8.7 |  |
| CCOS(=O)(=O)/C=C/c1ccc(OCCOc2ccc(/C=C/S(=O)(=O)OCC)cc2)cc1 | 3 |  |
| CCOS(=O)(=O)/C=C/c1ccc(OCc2ccc(COc3ccc(/C=C/S(=O)(=O)OCC)cc3)c(C(=O)O)c2)cc1 | 1.3 |  |
